# Where two headings read alike, the source gives them in different places. Marks after values point to notes of the source that are not given here.
# Tests used:
# in vivo = assay type: in vivo; settings: mouse
# Procedure: Intramacrophage L. donovani Assay. This assay was conducted as previously described, except for compound exposure time, which was 96 h instead of 72 h.4 […]
# All regulated procedures on living animals were carried out under the authority of a project license issued by the Home Office under the Animals (Scientific Procedures) Act 1986, as amended in 2012 (and in compliance with EU Directive EU/2010/63). Infected animals had access to food and water ad libitum and were housed under a 12 hour light/dark photoperiod. Animals used in these experiments were female NMRI and Balb/c mice (Harlan, UK).
# Test compound DDD01008714 was dosed orally (P.O.) at 10 mg free base/kg (dose volume 10 mL/kg; dose vehicle: 10% (vol/vol) dimethyl sulfoxide (DMSO), 40% polyethylene glycol 400 (PEG400) and 50% deionized water) to female NMRI mice (n = 3) or intravenously (I.V.) at 3 mg free base/kg (dose volume 5 mL/kg; dose vehicle: 10% (vol/vol) dimethyl sulfoxide (DMSO) and 90% Saline) to female Balb/c mice (n = 3). Blood samples (10 μL) where taken from the tail vein of […]
# samples for I.V. leg only) and mixed with two volumes of deionized water (20 μL). After suitable sample preparation, the concentration of test compound in the whole blood from treated mice was determined by UPLC-MS/MS using a Quattro Premier XE (Waters, USA). Pharmacokinetic parameters were derived from the mean blood concentration time curve using PK solutions software v 2.0 (Summit Research Services, USA). […]
# of concentration vs. Time for 4, dosed at 10 mg/kg. Extrapolated to 50 mg/kg assuming a linear dose increase, showing potential coverage above EC90 for approximately 6 hours […]
# (1 picture or pasted object on this page, not shown here)
# [1] = set-up: method as in PMID 30962368; settings: after 3 h; cited from earlier work
# [2] = cited from earlier work
# [3] = test system: infected mouse model of VL; assay: Infected mouse model of VL; assay type: in vivo; settings: 50 mg/kg ip, b.i.d for 5 days
# Procedure: In vivo Mouse Efficacy Studies. In vivo studies were carried out as previously described, with minor modifications.7 Briefly: Control drug used was Miltefosine (30 mg/kg orally, twice daily for 5 days), vehicle used was 10% (v/v) dimethyl sulfoxide (DMSO), 40% polyethylene glycol 400, and 50% deionized water (10 Ml/kg orally, twice daily for 5 days) and mice were treated with test compound intraperitoneally (50 mg/kg twice daily for 5 days).
# THP-1 cells = settings: cited from earlier work; for THP1 pIC50: supplementary csv, flagged as reported previously in the main tables
# [4] = set-up: method as in PMID 30962368; settings: cited from earlier work
# L. donovani amastigotes [5] = settings: cited from earlier work; for LdInMac pIC50: supplementary csv, flagged as reported previously in the main tables
# L. donovani amastigotes [6] = assay: INMAC assay: intramacrophage L. donovani in differentiated THP-1 cells; assay type: cell-based, Leishmania donovani; settings: Leishmania donovani, THP-1, INMAC
# Outline: (§1)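 Intramacrophage L. donovani amastigotes in differentiated THP-1 cells, run per an earlier protocol but with 96 h compound exposure instead of 72 h. Aqueous solubility also follows a previously described method.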
# [7] = Kinetic aqueous solubility by CLND; assay type: physicochemical; settings: CLND
# Outline: as §1
# [8] = set-up: method as in PMID 30962368; settings: after 3 h; cited from earlier work; remark: listed apart in the source
# [9] = supplementary csv; flagged as reported previously in Table 5; cited from earlier work
# [10] = female, Balb/c, in vivo, iv PK 3 mg/kg
# [11] = female, NMRI, in vivo, po PK 10 mg/kg
structure (smiles),measurement,setting,value
O=C(Nc1ccc(F)c(-c2cn3cc(N4CCOCC4)cnc3n2)c1)N1CCCC1 [Compound 4],AUC at 24 h,in vivo; [10],2250 ng·h/mL
same,half-life at 24 h,in vivo; [10],30 min
same,bioavailability at 24 h,"in vivo; female, NMRI, in vivo, po PK 10 mg/kg vs iv 3 mg/kg",57%
same,AUC at 24 h,in vivo; [11],4300 ng·h/mL
same,Cmax at 24 h,in vivo; [11],1300 ng/mL
same,Tmax at 24 h,in vivo; [11],30 min
same,Clb,in vivo; iv PK 3 mg/kg,22 mL/min/kg
same,Vdss,in vivo; listed under po PK (10 mg/kg),0.8 L/kg
same,time with blood levels above EC90,in vivo; oral dose of 10 mg/kg,around 2 h
same,"human plasma stability, compound remaining",[1],100%
same,CLi,"[2]; Table 1, mouse liver microsomes",<0.5 mL/min/g
same,Mouse CLi,"[2]; Table 2, mouse liver microsomes",<0.5^e mL/min/g
same,"Cli (mouse, ml/min/g)","[2]; supplementary csv, mouse, flagged as reported previously in the main tables",<0.5 mL/min/g
same,% reduction in parasitemia,[3],98%
same,THP-1 cells pEC50,THP-1 cells; Table 1,<4.3
same,THP1 pIC50,THP-1 cells,<4.3
same,Ames assay result,[4],positive
same,INMAC pEC50,"L. donovani amastigotes [5]; Table 1, five independent replicates, SD ≤0.2",6.2
same,INMAC pEC50,L. donovani amastigotes [5]; Table 2,6.2^e
same,LdInMac pIC50,L. donovani amastigotes [5],6.2
same,EC90,"L. donovani amastigotes [6]; pEC90 5.7 expressed as concentration, read-out: EC90",0.78 µg/mL
same,EC90,L. donovani amastigotes [6]; read-out: pEC90 (converted),2 µM
same,solubility,"[7]; Table 1, kinetic solubility, read-out: aqueous solubility",150 µM
same,solubility,"[7]; Table 2, kinetic, read-out: Aq. solubility",150 µM
same,"mouse plasma stability, compound remaining",[8],100%
"O=C(Nc1ccc(F)c(-c2nc3cc(N4CCOCC4)cnn3n2)c1)N1CCCC1 [Compound 24, N-(4-Fluoro-3-(7-morpholino-[1,2,4]triazolo[1,5-b]pyridazin-2-yl)phenyl)pyrrolidine-1-carboxamide]",THP-1 pEC50,THP-1 cells; Table 5,<4.3
same,THP1 pIC50,THP-1 cells,<4.3
same,INMAC pEC50,L. donovani amastigotes [5]; Table 5,6.1
same,LdInMac pIC50,L. donovani amastigotes [5],6.1
same,Aqueous Solubility,[9],420 µM
